Measurements taken from ChEMBL document CHEMBL1151331, “New cyclic peptides from the ascidian Lissoclinum patella” (J Nat Prod, 1998).

Assay: Cytotoxicity against human multi drug-resistant CEM/VBL100 cells
Type: functional, cell-based

Q: With `CC[C@]1(O)C[C@@H]2CN(CCc3c([nH]c4ccccc34)[C@@](C(=O)OC)(c3cc4c(cc3OC)N(C)[C@H]3[C@@](O)(C(=O)OC)[C@H](OC(C)=O)[C@]5(CC)C=CCN6CC[C@]43[C@@H]65)C2)C1` [VINBLASTINE] as the compound, how does the IC50 read?
A: 0.09 µM

Assay: Cytotoxicity against human multi drug-resistant CEM/VBL100 cells in presence of vinblastine
Type: functional, cell-based

Q: With `CC[C@H](C)[C@@H]1NC(=O)c2csc(n2)[C@@H](C(C)C)NC(=O)[C@H]2N=C(O[C@@H]2C)[C@H]([C@@H](C)CC)NC(=O)c2csc(n2)[C@@H](C(C)C)NC(=O)[C@@H]2COC1=N2` [PATELLAMIDE A] as the compound, how does the IC50 read?
A: 0.09 µM

Q: For `CC(C)C[C@H]1NC(=O)[C@H]([C@H](C)O)NC(=O)[C@H]2CSSC[C@@H](NC(=O)c3csc1n3)C(=O)N[C@@H]([C@H](C)O)C(=O)N[C@H](Cc1ccccc1)c1nc(cs1)C(=O)N2` [ULITHIACYCLAMIDE E], which IC50 is on record?
A: 0.112 µM

Q: With `CC(C)C[C@H]1NC(=O)[C@H]([C@H](C)O)NC(=O)[C@H]2CSSC[C@@H](NC(=O)c3csc1n3)C1=N[C@H](C(=O)N[C@H](Cc3ccccc3)c3nc(cs3)C(=O)N2)[C@@H](C)O1` [ULITHIACYCLAMIDE F] as the compound, how does the IC50 read?
A: 0.044 µM

Q: For `CC[C@H](C)[C@@H]1NC(=O)c2csc(n2)[C@@H](C)NC(=O)[C@H]2N=C(O[C@@H]2C)[C@H](CC(C)C)NC(=O)c2csc(n2)[C@@H](Cc2ccccc2)NC(=O)[C@H]2N=C1O[C@@H]2C` [PATELLAMIDE B], which IC50 is on record?
A: 0.012 µM

Q: With `CC[C@H](C)[C@@H]1NC(=O)c2csc(n2)[C@@H](Cc2ccccc2)NC(=O)[C@H]2N=C(O[C@@H]2C)[C@H](CC(C)C)NC(=O)c2csc(n2)[C@@H](C)NC(=O)[C@H]([C@H](C)O)NC1=O` [PATELLAMIDE G] as the compound, how does the IC50 read?
A: 0.06 µM

Q: For `CC(C)C[C@H]1NC(=O)[C@H]2N=C(O[C@@H]2C)[C@H]2CSSC[C@@H](NC(=O)c3csc1n3)C(=O)N[C@@H]([C@H](C)O)C(=O)N[C@H](Cc1ccccc1)c1nc(cs1)C(=O)N2` [ULITHIACYCLAMIDE G], which IC50 is on record?
A: 0.09 µM

Q: Which IC50 does the source give for `CC[C@H](C)[C@@H]1NC(=O)c2csc(n2)[C@@H](C)NC(=O)[C@H]2N=C(O[C@@H]2C)[C@H](C(C)C)NC(=O)c2csc(n2)[C@@H](Cc2ccccc2)NC(=O)[C@H]2N=C1O[C@@H]2C` [PATELLAMIDE C] here?
A: 0.012 µM
